Measurements as given in patent USRE39616E1, “Aminoindan derivatives” (priority 1996, dated 2007).
Structures can show the parent of a compound that is named as a salt. Where two headings read alike, the source gives them in different places.

Tests used:
MAO-A [1] = biological target: T1, MAO-A (Mus musculus, UniProt Q64133); assay: Inhibition of MAO activity ex vivo (brain); format: in vivo, mice
T1 construct: from tissue; host or cells: mouse brain
T1 sequence (Q64133 1-526): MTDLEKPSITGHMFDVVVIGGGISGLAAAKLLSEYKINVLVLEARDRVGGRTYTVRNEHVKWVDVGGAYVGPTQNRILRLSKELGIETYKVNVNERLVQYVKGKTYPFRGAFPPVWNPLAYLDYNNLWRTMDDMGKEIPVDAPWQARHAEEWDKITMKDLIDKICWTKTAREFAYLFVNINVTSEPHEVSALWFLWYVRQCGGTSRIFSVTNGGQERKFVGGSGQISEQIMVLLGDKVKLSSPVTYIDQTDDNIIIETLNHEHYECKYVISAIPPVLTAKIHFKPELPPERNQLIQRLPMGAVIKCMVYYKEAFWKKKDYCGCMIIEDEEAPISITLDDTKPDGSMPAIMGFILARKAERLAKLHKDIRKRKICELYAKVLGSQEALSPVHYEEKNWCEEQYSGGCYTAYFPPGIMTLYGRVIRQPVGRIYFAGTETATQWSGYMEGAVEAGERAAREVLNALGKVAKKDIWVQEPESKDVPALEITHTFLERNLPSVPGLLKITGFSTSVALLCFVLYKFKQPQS
Summary of the method: (§1)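 Male Sabra mice dosed with compound in 0.9% saline (2-3 per dose) and killed 2 h post-dose or at peak AChE-inhibition time. Brain homogenized in 0.3 M sucrose and assayed for MAO activity with 50 μM PEA (MAO-B) or 1 mM 5-HT (MAO-A) as substrate.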

MAO-B = biological target: T2, MAO-B (Mus musculus, UniProt Q8BW75); assay: Inhibition of MAO activity ex vivo (brain); format: in vivo, mice
T2 construct: from tissue; host or cells: mouse brain
T2 sequence (Q8BW75 1-520): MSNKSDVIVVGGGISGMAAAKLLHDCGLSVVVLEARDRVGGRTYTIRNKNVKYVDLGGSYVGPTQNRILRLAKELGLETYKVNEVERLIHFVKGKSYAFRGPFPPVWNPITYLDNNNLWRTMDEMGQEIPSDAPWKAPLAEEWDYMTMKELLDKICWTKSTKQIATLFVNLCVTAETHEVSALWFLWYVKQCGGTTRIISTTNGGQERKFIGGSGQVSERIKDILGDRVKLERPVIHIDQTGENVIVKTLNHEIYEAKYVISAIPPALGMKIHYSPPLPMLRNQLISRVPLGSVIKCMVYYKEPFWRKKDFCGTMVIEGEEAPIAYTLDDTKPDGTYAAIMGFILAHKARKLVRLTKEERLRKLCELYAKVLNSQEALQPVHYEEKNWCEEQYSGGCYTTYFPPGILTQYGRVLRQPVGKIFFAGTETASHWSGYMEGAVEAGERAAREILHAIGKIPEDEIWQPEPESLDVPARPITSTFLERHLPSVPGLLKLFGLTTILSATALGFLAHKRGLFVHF
Summary of the method: as §1

[2] = test system: mice, hypobaric hypoxic model; assay: animal or person; format: in vivo; settings: Mus musculus; for response vs control in vivo at 8 mg/kg: read-out: Protection (survival time), 8 mg/kg sc, 60 min before hypoxia
Excerpt: A 12 liter desiccator (desiccator A) and a 2.5 liter desiccator (desiccator B) were separately connected to a vacuum pump. Desiccator B was disconnected and allowed to equilibrate with room air whilst desiccator A was evacuated to a pressure of 100 mmHg. Four male ICR albino mice (22-28 g) were placed in desiccator B. Desiccator B was then closed to room air and connected to desiccator A. The pressure inside desiccator B was monitored using a mercury manometer and at the point were the pressure in desiccator B reached 200 mmpg (usually within 14 seconds), the two desiccators were disconnected from the vacuum pump and the pump switched off. The survival time from the moment of induction of hypoxia to the time of cessation of respiration was recorded for each mouse for a maximum of 15 minutes after which time room air was reintroduced to desiccator B. Survivors were monitored for signs of lethargy or vitality.
Effect of drug treatment was assessed as the percent of the survival time of the drug treated group with respect to the saline injected or vehicle injected control group. […] The effect of each dose of test drug was determined in duplicate i.e. two groups of 4 mice.
Positive reference drugs were sodium pentobarbital at a dose of 40 mg/kg, and diazepam 10 mg/kg given 0.5 h prior to hypoxia, physostigmine 0.2 and 0.4 mg/kg and neostigmine 0.2 mg/kg given sc 30 min before hypoxia. Methyl atropine 1 mg/kg was given sc. 10 min. before physostigmine.
Test drugs were dissolved in 0.9% saline, and injected sc. in the nip of the neck at a dose in accordance with body weight, 60-90 min. before hypoxia. The volume of injection was 0.2-0.3 mL per mouse (10 mL/kg). The initial dose was about one third of the reported LD50 for acetylcholine esterase inhibition. If no protection could be obtained, the dose was further increased to the nearest non-toxic dose. In case of protection, the dose was further reduced in an attempt to locate the “protective” dose range.

MAO-A [3] = biological target: T3, MAO-A (Rattus norvegicus, UniProt P21396); assay: Inhibition of MAO activity in vitro, 5-HT as substrate; format: biochemical; parameters: The MAO enzyme source was a homogenate of rat brain in 0.3M sucrose; from tissue; host or cells: rat brain homogenate, 600 g supernatant
T3 sequence (P21396 1-526): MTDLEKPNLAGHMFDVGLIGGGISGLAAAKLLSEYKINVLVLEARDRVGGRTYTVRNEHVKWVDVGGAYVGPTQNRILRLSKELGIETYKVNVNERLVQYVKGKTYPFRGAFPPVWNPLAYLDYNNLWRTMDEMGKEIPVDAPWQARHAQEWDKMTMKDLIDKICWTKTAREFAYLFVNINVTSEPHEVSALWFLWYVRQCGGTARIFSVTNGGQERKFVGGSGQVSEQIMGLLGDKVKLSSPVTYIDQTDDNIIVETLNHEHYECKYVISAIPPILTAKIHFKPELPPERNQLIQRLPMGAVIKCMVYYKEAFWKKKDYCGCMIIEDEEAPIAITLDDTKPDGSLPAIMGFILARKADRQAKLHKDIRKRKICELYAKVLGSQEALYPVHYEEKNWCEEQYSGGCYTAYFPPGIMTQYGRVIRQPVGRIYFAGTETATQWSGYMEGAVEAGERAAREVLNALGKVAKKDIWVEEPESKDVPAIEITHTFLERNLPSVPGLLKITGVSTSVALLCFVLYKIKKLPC
Protocol: Substrate concentrations used were 50 μM (PEA) and 1 mM (5-HT).

[4] = mice, within 6 hours after administration
[5] = sc, read-out: Protection (survival time), 50 mg/kg sc, 60 min before hypoxia
[6] = MAO-A Inhibition In vitro IC50, rat brain homogenate, 5-HT substrate

| Structure (SMILES) | MAO-A Inhibition Ex vivo ED50 (MAO-A [1]; mice, brain tissue) | MAO-B Inhibition Ex vivo ED50 (MAO-B; mice, brain tissue) | Acute Toxicity LD50 (LD) (mice; [4]) | response vs control in vivo at 8 mg/kg ([2]; sc) | response vs control in vivo at 50 mg/kg [2, 5] | Acute Toxicity LD50 (LD) (mice; mouse, in vivo) | Therapeutic Ratio LD/AC (mice; mouse, in vivo) | IC50 (MAO-A [3]; [6]) | other results |
| --- | --- | --- | --- | --- | --- | --- | --- | --- | --- |
| CCN(C)C(=O)Oc1ccc2c(c1)C(NC)CC2 (centres unmarked) [Compound 10] | >175 µmol/kg | >175 µmol/kg | 740 µmol/kg |  |  |  |  |  | response vs control in vivo at 10 mg/kg ([2]; sc, read-out: Protection (survival time), 10 mg/kg sc, 90 min before hypoxia): 304 ± 129%; response vs control in vivo at 25 mg/kg ([2]; sc, read-out: Protection (survival time), 25 mg/kg sc, 90 min before hypoxia): 700 ± 201%; response vs control in vivo at 50 mg/kg ([2]; sc, read-out: Protection (survival time), 50 mg/kg sc, 90 min before hypoxia): 705 ± 101%; IC50 (MAO-A [3]; rat brain homogenate, 5-HT substrate, read-out: MAO-A Inhibition In vitro IC50): 22 µM |
| C#CCNC1CCc2cccc(OC(=O)N(C)C)c21 (centres unmarked) [Compound 27] | >>160 μmoles/kg | >>160 μmoles/kg |  | 119 ± 45% | 455 ± 23% | 300 µmol/kg | 10 | > 1000 µM | response vs control in vivo at 3 mg/kg ([2]; sc, read-out: Protection (survival time), 3 mg/kg sc, 60 min before hypoxia): 287 ± 319%; response vs control in vivo at 15 mg/kg ([2]; sc, read-out: Protection (survival time), 15 mg/kg sc, 60 min before hypoxia): 143 ± 56% |
| C#CCN(C)C1CCc2ccc(OC(=O)N(C)C)cc21 (centres unmarked) [Compound 29] | 50 µmol/kg | 30 µmol/kg |  |  |  | 500 µmol/kg | 9.3 | 40 µM | response vs control in vivo at 25 mg/kg ([2]; sc, read-out: Protection (survival time), 25 mg/kg sc, 30 min before hypoxia): 273 ± 183%; response vs control in vivo at 25 mg/kg ([2]; sc, read-out: Protection (survival time), 25 mg/kg sc, 60 min before hypoxia): 131 ± 56%; response vs control in vivo at 53 mg/kg ([2]; sc, read-out: Protection (survival time), 53 mg/kg sc, 60 min before hypoxia): 638 ± 10%; response vs control in vivo at 77 mg/kg ([2]; sc, read-out: Protection (survival time), 77 mg/kg sc, 60 min before hypoxia): 508 ± 206% |
| C#CCNC1CCc2ccc(OC(=O)N(C)CC)cc21 (centres unmarked) [Compound 25, 6-(N-Me, N-Etcarbamyloxy) N-propargyl aminoindan, HCl] |  |  | 1400 µmol/kg |  |  |  | 10.8 |  | MAO-A Inhibition Ex vivo ED50 (MAO-A [1]; mouse, in vivo): >>350 μmoles/kg; MAO-B Inhibition Ex vivo ED50 (MAO-B; mouse, in vivo): 200 µmol/kg; response vs control in vivo at 25 mg/kg ([2]; 25 mg/kg sc, 60 min before hypoxia, read-out: Protection (survival time)): 84 ± 35%; response vs control in vivo at 50 mg/kg ([2]; 50 mg/kg sc, 60 min before hypoxia, read-out: Protection (survival time)): 380 ± 231%; response vs control in vivo at 75 mg/kg ([2]; 75 mg/kg sc, 60 min before hypoxia, read-out: Protection (survival time)): 559 ± 225%; response vs control in vivo at 100 mg/kg ([2]; 100 mg/kg sc, 60 min before hypoxia, read-out: Protection (survival time)): 761 ± 91%; IC50 (MAO-A [3]; MAO-A Inhibition In vitro IC50): 270 µM |
| CN(C)C(=O)Oc1ccc2c(c1)C(N)CC2 (centres unmarked) [Compound 1] | >>80 μmoles/kg | >>80 μmoles/kg | 83.8 µmol/kg | 637 ± 116% |  |  |  | 75 µM | response vs control in vivo at 2 mg/kg ([2]; sc, read-out: Protection (survival time), 2 mg/kg sc, 60 min before hypoxia): 120 ± 51%; response vs control in vivo at 4 mg/kg ([2]; sc, read-out: Protection (survival time), 4 mg/kg sc, 60 min before hypoxia): 470 ± 200% |
| C#CCNC1CCc2ccc(OC(=O)N(C)C)cc21 (centres unmarked) [Compound 24, 6-(N,N-Dimethylcarbamyloxy)-N-propargyl aminoindan mesylate] | >120 µmol/kg | 100 µmol/kg |  |  | 738% | 179 µmol/kg |  | 850 µM | response vs control in vivo at 21 mg/kg ([2]; sc, read-out: Protection (survival time), 21 mg/kg sc, 60 min before hypoxia): 269 ± 166% |
